Test results reported in patent publication US20180162844A1, “CYCLOPROPANE DERIVATIVE AND DRUG CONTAINING SAME” (EA PHARMA CO., LTD., priority 2015, published 2018).

Each molecule was assayed against T1, human TRPA1 (Homo sapiens, UniProt O75762) (assay: Measurement of TRPA1 antagonist activity (intracellular calcium increase, allylisothiocyanate stimulation, 293T cells transfected with human TRPA1 expression plasmid)). Conditions: Comparative Examples (Table 8-2); 293T cells expressing human TRPA1, allylisothiocyanate stimulation, FLIPR Calcium4, test substance added 10 min before AITC; read-out: hTRPA1 IC50.
T1 construct: full-length human TRPA1 gene was amplified; expressed in transfected cells; host or cells: Human embryonic kidney-derived 293T cells, transient transfection with pcDNA3.1/zeo(+) human TRPA1 expression plasmid
T1 sequence (O75762 whole entry): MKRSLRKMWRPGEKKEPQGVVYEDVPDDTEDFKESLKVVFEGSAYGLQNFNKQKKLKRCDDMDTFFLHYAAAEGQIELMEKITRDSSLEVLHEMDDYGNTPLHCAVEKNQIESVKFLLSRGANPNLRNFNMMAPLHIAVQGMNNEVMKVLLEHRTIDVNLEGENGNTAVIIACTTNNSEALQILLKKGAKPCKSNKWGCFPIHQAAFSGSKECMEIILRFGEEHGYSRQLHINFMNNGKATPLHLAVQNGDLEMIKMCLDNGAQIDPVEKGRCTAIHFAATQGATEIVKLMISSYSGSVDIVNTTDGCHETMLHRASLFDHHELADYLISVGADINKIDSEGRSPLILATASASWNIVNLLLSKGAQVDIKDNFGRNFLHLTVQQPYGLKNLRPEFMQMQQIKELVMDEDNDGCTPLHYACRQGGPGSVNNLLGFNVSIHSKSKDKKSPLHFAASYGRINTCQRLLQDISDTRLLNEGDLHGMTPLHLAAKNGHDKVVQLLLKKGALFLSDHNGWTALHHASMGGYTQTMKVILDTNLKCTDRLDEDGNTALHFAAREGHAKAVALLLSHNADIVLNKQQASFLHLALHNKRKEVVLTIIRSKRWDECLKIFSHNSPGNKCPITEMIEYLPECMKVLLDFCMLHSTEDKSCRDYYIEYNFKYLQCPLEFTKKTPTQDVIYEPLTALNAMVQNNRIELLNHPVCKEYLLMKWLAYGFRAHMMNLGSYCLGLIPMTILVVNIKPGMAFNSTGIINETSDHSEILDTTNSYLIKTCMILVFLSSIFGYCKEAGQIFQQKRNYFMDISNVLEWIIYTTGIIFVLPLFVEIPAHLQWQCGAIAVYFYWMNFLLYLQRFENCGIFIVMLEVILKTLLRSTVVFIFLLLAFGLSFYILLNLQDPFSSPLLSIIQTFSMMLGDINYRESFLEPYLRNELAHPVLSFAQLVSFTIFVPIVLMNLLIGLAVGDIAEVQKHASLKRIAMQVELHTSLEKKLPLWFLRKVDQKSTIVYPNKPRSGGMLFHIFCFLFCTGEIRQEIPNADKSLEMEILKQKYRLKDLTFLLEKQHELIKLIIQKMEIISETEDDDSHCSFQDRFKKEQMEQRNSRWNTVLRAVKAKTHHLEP
Type: cell-based
Experimental: Experimental Example 1: Measurement of TRPA1 antagonist Activity
Human TRPA1 Expression Plasmid
Using cDNA encoding human TRPA1 (GenBank accession No. NM_007332) (manufactured by Kazusa DNA Research Institute, item No.: FHC07217) as a template, primer 1 (SEQ ID NO: 1) and primer 2 (SEQ ID NO: 2), PCR by PfuUltra High-Fidelity DNA Polymerase (Stratagene) was performed, and full-length human TRPA1 gene was amplified.
A recognition site (underlined) of restriction enzyme HindIII was added to the 5′ end of human TRPA1 gene, and XbaI site (underlined) was added to the 3′ end of human TRPA1 gene, and GTT of the template sequence was changed to termination codon TAG (bold). The obtained double stranded DNA was enzyme-digested with HindIII and XbaI, and introduced into a multicloning site of expression plasmid pcDNA3.1/zeo(+) (manufactured by Invitrogen) to give a human TRPA1 expression plasmid.
Human embryonic kidney-derived 293T cells were cultured in Dulbecco's Modified Eagle Medium containing 10% fetal bovine serum, 10 unit penicillin, and 10 μg streptomycin. One day before assay, 3×10^6 of 293T cells were plated on a petri dish having a diameter of 10 cm, and cultured in a CO2 incubator for 24 hr. OPTI-MEM I Reduced Serum Media (Invitrogen). (600 μL), Mirus TransIT-293 (Mirus Bio) (18 μL), and human TRPA1 expression plasmid (6 μg) were mixed, the total amount of the mixture was added to the cells on the petri dish to allow for gene transfer. The cells were recovered about for 8 hr later, plated on a poly-D-lysine coated 384 well black/clear bottom plate at 12,000 cells/well, and cultured overnight.
Measurement of Intracellular Calcium Increase
The medium was removed from the 384 well plate, calcium indicator (Molecular Device, trade name: FLIPR Calcium4 Assay Kit) dissolved in HBSS (Thermo Fisher Scientific) (pH 7.2) containing 20 mM HEPES was added (38 μL/well), and the cells were stained in a CO2 incubator for 1 hr. The 384 well plate was stood at room temperature for not less than 15 min, set on FDSS7000 (Hamamatsu Photonics K.K.), and a test substance solution was added at 10 μL/well. After 10 min, allylisothiocyanate solution (12 μL/well) was added, the relative fluorescence intensity was measured for 5 min after addition of the allylisothiocyanate solution.
Preparation of Test Substance Solution and Allylisothiocyanate Solution
A test substance solution was prepared to have a composition of HBSS (Thermo Fisher Scientific) (pH 7.2) containing 0.48% dimethyl sulfoxide, a test substance at 4.8-fold concentration of the evaluation concentration, 0.1% bovine serum albumin and 20 mM HEPES. An allylisothiocyanate solution was prepared to have a composition of HBSS (Thermo Fisher Scientific) (pH 7.2) containing 0.1% dimethyl sulfoxide, 100 μM allylisothiocyanate, 0.1% bovine serum albumin and 20 mM HEPES.
Calculation of Antagonist Activity
The activity rate of a test substance at each concentration was calculated, wherein the relative fluorescence intensity change of a well free of a test substance and containing allylisothiocyanate is 100% activity rate, and the relative fluorescence intensity change of a well free of a test substance and allylisothiocyanate is 0% activity rate. The inhibitory rate of a test substance at each concentration was calculated by subtracting the activity rate of the test substance from 100% activity rate, and the concentration of a test substance showing 50% inhibitory rate was calculated as IC50 from the sigmoid approximate curve by XLFit (idbs).
In the case of `O=C(NCc1cc(-c2ccc(C(F)(F)F)cc2)nc(N2CCCC2)c1)C1(NS(=O)(=O)c2ccc(Cl)s2)CC1` [Comparative Example 4, 1-[(5-chloro-2-thienyl)sulfonylamino]-N-[[2-pyrrolidin-1-yl-6-[4-(trifluoromethyl)phenyl]-4-pyridyl]methyl]cyclopropanecarboxamide, reference compound], the IC50 is reported as > 1 µM.

Same assay, conditions: Examples (Table 8-1); 293T cells expressing human TRPA1, allylisothiocyanate stimulation, FLIPR Calcium4, test substance added 10 min before AITC; read-out: hTRPA1 IC50
`O=C(NCc1cc(-c2ccc(C(F)(F)F)nn2)ccn1)C1(NS(=O)(=O)c2cc3cc(F)ccc3o2)CC1` [Example 8, 1-[(5-fluorobenzofuran-2-yl)sulfonylamino]-N-[[4-[6-(trifluoromethyl)pyridazin-3-yl]-2-pyridyl]methyl]cyclopropane-carboxamide] was tested, and the IC50 was 0.074 µM. `O=C(NCc1ccnc(-c2ccc(C(F)(F)F)cc2O)c1)C1(NS(=O)(=O)c2cc3cc(F)ccc3o2)CC1` [Example 3, 1-[(5-fluorobenzofuran-2-yl)sulfonylamino]-N-[[2-[2-hydroxy-4-(trifluoromethyl)phenyl]-4-pyridyl]methyl]cyclopropane-carboxamide] was tested, and the IC50 was 0.072 µM. In the case of `O=C(NCc1cnnc(-c2ccc(C(F)(F)F)cc2)c1)C1(NS(=O)(=O)c2cc3cc(F)ccc3o2)CC1` [Example 15, 1-[(5-fluorobenzofuran-2-yl)sulfonylamino]-N-[[6-[4-(trifluoromethyl)phenyl]pyridazin-4-yl]methyl]cyclopropanecarboxamide], the IC50 is reported as 0.31 µM. `O=C(NCc1cc(-c2ccc(C(F)(F)F)cc2)ncn1)C1(NS(=O)(=O)c2cc3cc(F)ccc3o2)CC1` [Example 1, 1-[(5-fluorobenzofuran-2-yl)sulfonylamino]-N-[[6-[4-(trifluoromethyl)phenyl]pyrimidin-4-yl]methyl]cyclopropanecarboxamide] was tested, and the IC50 was 0.033 µM. With `O=C(NCc1cncc(-c2ccc(C(F)(F)F)nc2)c1)C1(NS(=O)(=O)c2cc3cc(F)ccc3o2)CC1` [Example 9, 1-[(5-fluorobenzofuran-2-yl)sulfonylamino]-N-[[5-[6-(trifluoromethyl)-3-pyridyl]-3-pyridyl]methyl]cyclopropane-carboxamide] the IC50 was 0.17 µM. Work on `O=C(NCc1cc(-c2ccc(OC(F)(F)F)cc2)ncn1)C1(NS(=O)(=O)c2cc3cc(F)ccc3o2)CC1` [Example 11, 1-[(5-fluorobenzofuran-2-yl)sulfonylamino]-N-[[6-[4-(trifluoromethoxy)phenyl]pyrimidin-4-yl]methyl]cyclopropanecarboxamide] yielded an IC50 of 0.04 µM. Molecule `CN(C)c1nc(CNC(=O)C2(NS(=O)(=O)c3cc4ccccc4o3)CC2)cc(-c2ccc(C(F)(F)F)cc2)n1` [Example 23, 1-(benzofuran-2-ylsulfonylamino)-N-[[2-(dimethylamino)-6-[4-(trifluoromethyl)phenyl]pyrimidin-4-yl]methyl]cyclopropanecarboxamide] has an IC50 of 0.1 µM. Molecule `O=C(NCc1ccc(O)c(-c2ccc(C(F)(F)F)cn2)c1)C1(NS(=O)(=O)c2cc3cc(F)ccc3o2)CC1` [Example 18, 1-[(5-fluorobenzofuran-2-yl)sulfonylamino]-N-[[4-hydroxy-3-[5-(trifluoromethyl)-2-pyridyl]phenyl]methyl]-cyclopropanecarboxamide] has an IC50 of 0.025 µM. `O=C(NCc1cc(-c2cnc(C(F)(F)F)cn2)ccn1)C1(NS(=O)(=O)c2cc3cc(F)ccc3o2)CC1` [Example 7, 1-[(5-fluorobenzofuran-2-yl)sulfonylamino]-N-[[4-[5-(trifluoromethyl)pyrazin-2-yl]-2-pyridyl]methyl]cyclopropane-carboxamide] gave an IC50 of 0.17 µM. `CC(C)N(C1(C(=O)NCc2cc(-c3ccc(C(F)(F)F)nc3)ncn2)CC1)S(=O)(=O)c1cc2cc(F)ccc2o1` [Example 24, 1-[(5-fluorobenzofuran-2-yl)sulfonyl-isopropyl-amino]-N-[[6-[6-(trifluoromethyl)-3-pyridyl]pyrimidin-4-yl]methyl]cyclopropanecarboxamide] was tested, and the IC50 was 0.0033 µM.
